Test [1] deals with reperfusion renal injury model. Put plainly: Reperfusion renal injury model (clamping both renal arteries for 60 minutes). The format is in vivo, rat. The conditions noted are these: 24 hours following reperfusion. The method, then: Two different models of acute renal failure were used: the nephrotoxic acute renal failure model, as described above, and the reperfusion renal injury model, which involved clamping both renal arteries for 60 minutes. (K. J. Kelly, W. W. Williams, R. B. Colvin and J. V. Bonventure, “Intercellular Adhesion Molecule 1 Protects the Kidney Against Ischemic Injury,” Proc. Natl. Acad. Sci. USA, 91:812-816 (1994); and S. Vukicevic, V. Basic, D. Rogic, N. Basic, M. S. Shih, A. Shepard, D. Jin, D. Bosukonda, W. Jones, H. Dorai, S. Ryan, D. Griffiths, J. Maliakal, M. Jelic, M. Pastorcic, A. Stavljenic and K. Sampath, “Osteogenic Protein-1 (Bone Morphogenetic Protein-7) Reduces Severity of Injury After Ischemic Acute Renal Failure in Rat,” J. Clin. Invest.,102:202-214 (1998).)
The animals were dosed with the EP4 agonist just prior to the initiation of the nephrotoxic insult.

Test [2] concerns nephrotoxic acute renal failure model. The experiment in a line: Nephrotoxic acute renal failure model. The format is in vivo, rat. The method, then:
The remnant rat kidney (5/6 nephrectomy) model employed was essentially as previously described in the literature (Vukicevic et al., Journal of Bone and Mineral Research, 2:533-545 (1987)). In brief, male rats (4 months old, weighing approximately 400 g) were anesthesized by intraperitoneal administration of ketamin (20 mg/kg) and then subjected to unilateral nephrectomy (left kidney). All animals were subjected to intraperitoneal administration of 1-3 ml of prewarmed saline to compensate for any fluid loss during the surgery. After one week, ⅔ of the remaining kidney was surgically removed. The rats were allowed to recover for one or two weeks prior to the initiation of the therapy for the prevention of the disease.
Blood samples (0.5 ml) were obtained from the orbital plexus and serum creatinine, BUN (blood urea nitrogen), calcium, phosphate and other blood chemistries were monitored throughout the study. Urine was collected on metabolic cages for 24 h. Creatinine was measured by a Jaffe method. A. W. Whelton, A. J. Watson and R. C. Rock: “Nitrogen Metabolites and Renal Function,” in: Clinical Chemistry (Eds: C. A. Burtis and E. R. Ashwood) W. B. Saunders, Philadelphia, Pa., 1513-1575 (1994). BUN was measured by a glutamate dehydrogenase ultraviolet method, phosphorus by a molybdate method, and calcium by an o-cresolphtaleine method. R. A. Lafayette, R. D. Perrone and A. S. Levey: “Laboratory Evaluation of Renal Function,” in: Diseases of the Kidney (Eds: R. W. Schrier and C. W. Gottschalk), Little, Brown and Company, Inc., Vol. 6, 307-354 (1997). The GFR was calculated using […] (24 hr collection) and adjusted to body weights. The cumulative survival rate was also observed and recorded for both the control and the experimental groups. The kidney was subjected to histomorphometric analysis and scored for tissue pathology.
Two different models of acute renal failure were used: the nephrotoxic acute renal failure model, as described above, and the reperfusion renal injury model, which involved clamping both renal arteries for 60 minutes. […]

The target of the next test is T1, EP2 receptor (Homo sapiens, UniProt P43116).
T1 construct: These full length receptors are used to prepare 293S cells expressing the EP1, EP2, EP3 and EP4 receptors; expressed in transfected cells; membranes
The experiment in a line: Assay for binding to prostaglandin E2 receptors, 3H-PGE2 displacement (EP2). The conditions noted are these: displacement of 3H-prostaglandin E2, membranes of transfected 293S cells; read-out: IC50 at EP2 receptor subtype. As for the experimental part: (§1) All operations are performed at 4° C. […] The cells are lysed by sonification with a Branson Sonifier (Model #250, Branson Ultrasonics Corporation, Danbury, Conn.) in 2 fifteen second bursts. Unlysed cells and debris are removed by centrifugation at 100×g for 10 min. Membranes are then harvested by centrifugation at 45,000×g for 30 minutes. Pelleted membranes are resuspended to 3-10 mg of protein per ml of Buffer A, the protein concentration being determined by the method of Bradford [M. Bradford, Anal. Biochem., 72, 248 (1976)]. Resuspended membranes are then stored frozen at −80° C. until use.
(§2) Frozen membranes prepared as above are thawed and diluted to 1 mg protein per ml in Buffer A above. One volume of membrane preparation is combined with 0.05 volume test compound or buffer and one volume of 3 nM ^3H-prostaglandin E2 (#TRK 431, Amersham, Arlington Heights, Ill.) in Buffer A. The mixture (205 μL total volume) is incubated for 1 hour at 25° C. The membranes are then recovered by filtration through type GF/C glass fiber filters (#1205-401, Wallac, Gaithersburg, Md.) using a Tomtec harvester (Model Mach 11/96, Tomtec, Orange, Conn.). […] To determine the amount of ^3H-prostaglandin bound to the membranes, the dried filters are placed into plastic bags with scintillation fluid and counted in a LKB 1205 Betaplate reader (Wallac, Gaithersburg, Md.). […]
(In general: Displacement assays read how much labelled ligand stays bound in the presence of the test substance.)

Another test has as its target T2, EP4 receptor (Homo sapiens, UniProt P35408).
T2 construct: These full length receptors are used to prepare 293S cells expressing the EP1, EP2, EP3 and EP4 receptors; expressed in transfected cells; membranes
Put plainly: Assay for binding to prostaglandin E2 receptors, 3H-PGE2 displacement (EP4). The conditions noted are these: displacement of 3H-prostaglandin E2, membranes of transfected 293S cells. As for the experimental part: as §1, §2

For another test, the target named is T3, EP3 receptor (Homo sapiens, UniProt P43115).
T3 construct: These full length receptors are used to prepare 293S cells expressing the EP1, EP2, EP3 and EP4 receptors; expressed in transfected cells; membranes
T3 sequence (P43115 1-390): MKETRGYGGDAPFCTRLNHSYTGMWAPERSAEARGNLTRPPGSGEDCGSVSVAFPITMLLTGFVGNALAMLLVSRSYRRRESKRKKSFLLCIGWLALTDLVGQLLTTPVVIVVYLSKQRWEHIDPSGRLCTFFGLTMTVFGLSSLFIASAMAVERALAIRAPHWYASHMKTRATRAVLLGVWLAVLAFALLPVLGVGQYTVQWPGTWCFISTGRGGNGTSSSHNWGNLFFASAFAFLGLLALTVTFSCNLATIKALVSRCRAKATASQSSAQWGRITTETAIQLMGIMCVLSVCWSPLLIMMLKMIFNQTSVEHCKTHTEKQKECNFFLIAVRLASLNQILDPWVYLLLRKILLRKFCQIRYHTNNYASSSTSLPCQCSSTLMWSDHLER
Put plainly: Assay for binding to prostaglandin E2 receptors, 3H-PGE2 displacement (EP3). The conditions noted are these: displacement of 3H-prostaglandin E2, membranes of transfected 293S cells; read-out: IC50 at EP3 receptor subtype. The method, then:
as §1, §2

Another test concerns the target T4, EP1 receptor (Homo sapiens, UniProt P34995).
T4 construct: These full length receptors are used to prepare 293S cells expressing the EP1, EP2, EP3 and EP4 receptors; expressed in transfected cells; membranes
T4 sequence (P34995 1-402): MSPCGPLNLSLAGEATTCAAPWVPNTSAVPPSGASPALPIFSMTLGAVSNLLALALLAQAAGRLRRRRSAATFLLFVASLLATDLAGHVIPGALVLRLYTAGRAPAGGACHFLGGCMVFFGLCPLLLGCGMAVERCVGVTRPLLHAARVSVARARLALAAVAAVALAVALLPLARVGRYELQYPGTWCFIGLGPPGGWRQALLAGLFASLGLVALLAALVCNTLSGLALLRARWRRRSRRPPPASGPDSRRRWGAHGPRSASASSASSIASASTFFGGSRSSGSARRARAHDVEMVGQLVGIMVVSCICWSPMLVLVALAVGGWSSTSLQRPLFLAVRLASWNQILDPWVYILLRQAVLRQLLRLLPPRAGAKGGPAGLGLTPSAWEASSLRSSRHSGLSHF
Put plainly: Assay for binding to prostaglandin E2 receptors, 3H-PGE2 displacement (EP1). The conditions noted are these: displacement of 3H-prostaglandin E2, membranes of transfected 293S cells; read-out: IC50 at EP1 receptor subtype. As for the experimental part:
as §1, §2

T1 sequence (P43116 whole entry): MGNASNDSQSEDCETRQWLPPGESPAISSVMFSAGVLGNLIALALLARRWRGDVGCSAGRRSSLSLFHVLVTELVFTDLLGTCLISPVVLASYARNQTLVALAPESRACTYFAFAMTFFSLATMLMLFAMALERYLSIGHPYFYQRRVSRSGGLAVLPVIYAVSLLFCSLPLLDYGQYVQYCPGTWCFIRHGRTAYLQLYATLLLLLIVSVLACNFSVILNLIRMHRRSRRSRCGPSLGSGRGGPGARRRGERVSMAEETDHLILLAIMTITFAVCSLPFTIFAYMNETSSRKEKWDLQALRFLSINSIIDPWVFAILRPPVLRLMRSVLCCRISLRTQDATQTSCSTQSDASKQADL
T2 sequence (P35408 whole entry): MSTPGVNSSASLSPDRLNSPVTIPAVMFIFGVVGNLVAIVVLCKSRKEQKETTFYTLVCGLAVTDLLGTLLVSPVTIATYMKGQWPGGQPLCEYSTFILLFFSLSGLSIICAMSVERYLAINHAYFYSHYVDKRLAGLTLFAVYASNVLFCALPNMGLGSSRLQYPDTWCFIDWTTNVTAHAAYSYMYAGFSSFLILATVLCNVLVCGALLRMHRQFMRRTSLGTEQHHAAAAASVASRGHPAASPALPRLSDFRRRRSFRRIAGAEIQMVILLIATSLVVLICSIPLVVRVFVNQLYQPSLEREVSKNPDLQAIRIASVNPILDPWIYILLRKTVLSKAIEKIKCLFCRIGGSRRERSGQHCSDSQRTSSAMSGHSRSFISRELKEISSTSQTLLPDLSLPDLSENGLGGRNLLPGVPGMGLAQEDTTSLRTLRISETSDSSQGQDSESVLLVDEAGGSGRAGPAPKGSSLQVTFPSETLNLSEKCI

On to `O=C(O)CCCCCCN1C(=O)CCC1CCC(O)Cc1ccccc1` (centres unmarked) [7-(2-(3-hydroxy-4-phenyl-butyl)-5-oxo-pyrrolidin-1-yl)-heptanoic acid], for which the “efficacy in reperfusion renal injury” value in test [1] is “effective 24 hours following reperfusion”. The “animals survived after seven days” value in test [2] (dose of 10 mg/kg, control group four out of ten) is listed as “nine out of ten”. For the same compound, the “protection against renal injury, based on serum parameters” value in test [2] (dosed just prior to the nephrotoxic insult) is “effective in protecting against renal injury”. Also, the “survival time of animals” value in test [2] (doses 1 mg/kg and 10 mg/kg, 10 mg/kg better than 1 mg/kg) is “increased the survival time of animals in a dose dependent manner”. The IC50 (as a rule, the point on the concentration scale where inhibition reaches its midpoint) on EP2 receptor was > 3.2 µM; on EP4 receptor, 0.016 µM; on EP3 receptor, > 3.2 µM; on EP1 receptor, > 3.2 µM.

The record behind these values is US6610719B2 (Pfizer Inc., priority 2000, dated 2003).
